18 molecules from patent US20200069648A1, “HALOALLYLAMINE PYRAZOLE DERIVATIVE INHIBITORS OF LYSYL OXIDASES AND USES THEREOF” (Pharmaxis Ltd., priority 2017, published 2020) can be followed below.

In assay [1] the target is T1, human recombinant SSAO/VAP-1 (Homo sapiens, UniProt Q16853).
T1 construct: a cloned cDNA template corresponding to residues 34-763 of human SSAO/VAP-1; TEV cleavage site (N); made in house
T1 sequence (Q16853 34-763): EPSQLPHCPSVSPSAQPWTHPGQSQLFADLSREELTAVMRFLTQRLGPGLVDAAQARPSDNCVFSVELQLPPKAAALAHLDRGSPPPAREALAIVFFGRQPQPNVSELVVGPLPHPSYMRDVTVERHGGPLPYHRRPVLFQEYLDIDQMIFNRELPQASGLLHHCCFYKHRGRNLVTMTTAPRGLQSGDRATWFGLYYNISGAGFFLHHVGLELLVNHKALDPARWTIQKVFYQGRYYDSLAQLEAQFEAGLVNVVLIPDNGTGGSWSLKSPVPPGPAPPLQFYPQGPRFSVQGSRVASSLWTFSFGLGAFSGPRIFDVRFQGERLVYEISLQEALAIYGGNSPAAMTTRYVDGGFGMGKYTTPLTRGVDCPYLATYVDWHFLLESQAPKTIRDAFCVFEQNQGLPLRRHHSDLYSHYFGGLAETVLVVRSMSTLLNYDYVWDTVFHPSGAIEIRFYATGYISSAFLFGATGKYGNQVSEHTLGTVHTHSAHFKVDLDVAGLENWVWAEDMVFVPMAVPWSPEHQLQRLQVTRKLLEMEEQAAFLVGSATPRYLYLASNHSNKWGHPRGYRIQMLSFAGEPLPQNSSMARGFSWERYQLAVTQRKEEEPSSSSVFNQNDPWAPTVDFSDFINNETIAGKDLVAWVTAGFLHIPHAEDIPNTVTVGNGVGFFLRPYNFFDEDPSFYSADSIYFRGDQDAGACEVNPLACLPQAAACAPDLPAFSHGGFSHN
Put plainly: Human recombinant SSAO/VAP-1 amine oxidase inhibition. Type of assay: biochemical. Particulars: 30 min preincubation at 37° C., 600 μM benzylamine. The protocol: Method to Determine the Ability of Compounds of Formula I to Inhibit Human Recombinant SSAO/VAP-1
Human recombinant SSAO/VAP-1 amine oxidase activity was determined using the coupled colorimetric method as described for monoamine oxidase, copper-containing amine oxidases and related enzymes (Holt A. and Palcic M., A peroxidase-coupled continuous absorbance plate-reader assay for flavin monoamine oxidases, copper-containing amine oxidases and related enzymes. Nat Protoc 2006; 1: 2498-2505). Briefly, a cloned cDNA template corresponding to residues 34-763 of human SSAO/VAP-1, and incorporating a mouse Ig kappa (κ) signal sequence, N-terminal flag epitope tag and tobacco etch virus (TEV) cleavage site, was assembled in a mammalian expression vector (pLO-CMV) by Geneart AG. This vector containing human SSAO/VAP-1 residues was transfected into CHO-K1 glycosylation mutant cell line, Lec 8. A clone stably expressing human SSAO/VAP-1 was isolated and cultured in large scale. Active human SSAO/VAP-I was purified and recovered using immunoaffinity chromatography. This was used as the source for SSAO/VAP-1 activity. A high-throughput colorimetric assay was developed using either 96 or 384 well format. Briefly, in a standard 96 well plate assay 50 μL of purified human SSAO/VAP-1 (0.25 μg/mL) in 0.1 M sodium phosphate buffer (pH 7.4) was added into each well. Test compounds were dissolved in DMSO and tested in a Concentration Response Curve (CRC) with 4-11 data points, typically in the micromolar or nanomolar range after incubation with human SSAO/VAP-1 for 30 min at 37° C. After 30 min incubation, 50 μL of the reaction mixture containing 600 μM benzylamine (Sigma Aldrich), 120 μM Amplex Red (Sigma Aldrich) and 1.5 U/mL horseradish peroxidase (Sigma Aldrich) prepared in 0.1 M sodium phosphate buffer (pH 7.4) were added to the corresponding well. The fluorescence unit (RFU) was read every 2.5 min for 30 min at 37° C. excitation 565 nm and emission 590 (Optima; BMG labtech). The slope of the kinetics for each well was calculated using MARS data analysis software (BMG labtech) and this value was used to deduce the IC50 value (Dotmatics).

Assay [2] has as its target T2, Recombinant human MAO-B (Homo sapiens, UniProt P27338).
T2 construct: purchased Sigma Aldrich
T2 sequence (P27338 1-520): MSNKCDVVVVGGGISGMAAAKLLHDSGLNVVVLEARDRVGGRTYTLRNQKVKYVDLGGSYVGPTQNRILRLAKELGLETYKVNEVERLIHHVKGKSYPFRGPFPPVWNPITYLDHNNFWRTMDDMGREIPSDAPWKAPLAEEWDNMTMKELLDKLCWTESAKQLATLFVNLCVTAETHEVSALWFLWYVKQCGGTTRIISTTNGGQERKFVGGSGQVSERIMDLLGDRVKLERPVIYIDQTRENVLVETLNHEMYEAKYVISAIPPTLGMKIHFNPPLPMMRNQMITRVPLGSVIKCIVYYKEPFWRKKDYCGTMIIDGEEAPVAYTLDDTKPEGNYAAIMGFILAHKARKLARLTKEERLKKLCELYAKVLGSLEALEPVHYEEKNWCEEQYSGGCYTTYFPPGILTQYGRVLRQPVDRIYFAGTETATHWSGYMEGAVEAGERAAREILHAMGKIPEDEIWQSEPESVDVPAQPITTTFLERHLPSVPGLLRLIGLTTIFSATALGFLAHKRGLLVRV
Put plainly: Human recombinant MAO-B inhibition. Type of assay: biochemical. Particulars: benzylamine 100 μM. As to the method:
Method to Determine the Ability of Compounds of Formula I to Inhibit Human Recombinant MAO-B
The specificity of the compounds of this invention was tested by determining their ability to inhibit MAO-B activities in vitro. Recombinant human MAO-B (0.06 mg/mL; Sigma Aldrich) was used as source of MAO-B enzyme activities. The assay was performed in a similar way as for human SSAO/VAP-1 (Example 46) except, the substrate benzylamine was used at 100 μM.

Structures can show the parent of a compound that is named as a salt. Some results are limits rather than exact numbers.

As to `Cc1nn(C/C(F)=C/CN)c(C(C)O)c1Cc1ccc(S(=O)(=O)N(C)C)c(Cl)c1` (single isomer, unassigned) [Compound 52, (Z)-4-((1-(4-amino-2-fluorobut-2-en-1-yl)-5-(1-hydroxyethyl)-3-methyl-1H-pyrazol-4-yl)methyl)-2-chloro-N,N-dimethylbenzenesulfonamide hydrochloride], the IC50 in assay [1] and in assay [2] was above 30 µM in each case. Turning to `Cc1nn(C/C(F)=C/CN)c(C(C)O)c1Cc1ccc(S(=O)(=O)N(C)C)c(Cl)c1` (single isomer, unassigned) [Compound 53, (Z)-4-((1-(4-amino-2-fluorobut-2-en-1-yl)-5-(1-hydroxyethyl)-3-methyl-1H-pyrazol-4-yl)methyl)-2-chloro-N,N-dimethylbenzenesulfonamide hydrochloride], the IC50 in assay [1] and in assay [2] was above 30 µM throughout. With `N#CCCN` [BAPN, β-aminopropionitrile, reference compound], the IC50 in assay [1] and in assay [2] was above 100 µM each time. With `CN(C)S(=O)(=O)c1ccc(-c2cnn(C/C(F)=C/CN)c2)cc1` [Compound 1, (Z)-4-(1-(4-amino-2-fluorobut-2-en-1-yl)-1H-pyrazol-4-yl)-N,N-dimethyl benzenesulfonamide hydrochloride], the IC50 is below 10 µM in assay [1] and above 10 µM in assay [2]. Taken in the same sequence, the figures for `Cc1nn(C/C(F)=C/CN)c(C)c1Cc1ccc(S(=O)(=O)N(C)C)cc1` [Compound 2, (Z)-4-((1-(4-amino-2-fluorobut-2-en-1-yl)-3,5-dimethyl-1H-pyrazol-4-yl)methyl)-N,N-dimethylbenzenesulfonamide hydrochloride] were above 30 µM and above 30 µM.

On to `Cc1nn(C/C(F)=C/CN)c(C)c1Cc1ccc(S(=O)(=O)N(C)C)cc1Cl` [Compound 3, (Z)-4-((1-(4-amino-2-fluorobut-2-en-1-yl)-3,5-dimethyl-1H-pyrazol-4-yl)methyl)-3-chloro-N,N-dimethylbenzenesulfonamide hydrochloride], for which the IC50 in assay [1] and in assay [2] was above 30 µM in each case. Turning to `Cc1nn(C/C(F)=C/CN)c(C)c1Cc1ccc(S(C)(=O)=O)cc1` [Compound 4, (Z)-4-(3,5-dimethyl-4-(4-(methylsulfonyl)benzyl)-1H-pyrazol-1-yl)-3-fluorobut-2-en-1-amine hydrochloride], the IC50 in assay [1] and in assay [2] was above 30 µM each time.

As for `Cc1nn(C/C(F)=C/CN)c(C)c1Cc1cccc(S(=O)(=O)N(C)C)c1` [Compound 5, (Z)-3-((1-(4-amino-2-fluorobut-2-en-1-yl)-3,5-dimethyl-1H-pyrazol-4-yl)methyl)-N,N-dimethyl benzenesulfonamide hydrochloride], the IC50 in assay [1] and in assay [2] was above 30 µM in each case. Consider `Cc1nn(C/C(F)=C/CN)c(C)c1Cc1ccc(S(=O)(=O)N2CCOCC2)cc1` [Compound 6, (Z)-4-(3,5-dimethyl-4-(4-(morpholinosulfonyl)benzyl)-1H-pyrazol-1-yl)-3-fluorobut-2-en-1-amine hydrochloride], for which the half-inhibitory concentration (IC50) in assay [1] and in assay [2] was above 30 µM in each case.

As to `Cc1nn(C/C(F)=C/CN)c(C)c1Cc1ccc(S(=O)(=O)N2CCCC2)cc1` [Compound 7, (Z)-4-(3,5-dimethyl-4-(4-(pyrrolidin-1-ylsulfonyl)benzyl)-1H-pyrazol-1-yl)-3-fluorobut-2-en-1-amine hydrochloride], the results for the IC50 in assay [1] and in assay [2] were above 10 µM and above 30 µM, respectively. For `Cc1nn(C/C(F)=C/CN)c(C)c1Cc1ccc(S(=O)(=O)N(C)C(C)C)cc1` [Compound 8, (Z)-4-((1-(4-amino-2-fluorobut-2-en-1-yl)-3,5-dimethyl-1H-pyrazol-4-yl)methyl)-N-isopropyl-N-methylbenzenesulfonamide hydrochloride], in that order: above 10 µM and above 30 µM.

`Cc1nn(C/C(F)=C/CN)c(C)c1Cc1ccc(S(=O)(=O)N(C)C)c2ccccc12` [Compound 9, (Z)-4-((1-(4-amino-2-fluorobut-2-en-1-yl)-3,5-dimethyl-1H-pyrazol-4-yl)methyl)-N,N-dimethyl naphthalene-1-sulfonamide hydrochloride]: the IC50 in assay [1] and in assay [2] was above 10 µM throughout.

Consider `Cc1nn(Cc2ccc(S(=O)(=O)N(C)C)cc2)c(C)c1C/C(F)=C/CN` [Compound 10, (Z)-4-((4-(4-amino-2-fluorobut-2-en-1-yl)-3,5-dimethyl-1H-pyrazol-1-yl)methyl)-N,N-dimethylbenzenesulfonamide hydrochloride], for which the IC50 is below 10 µM in assay [1] and above 10 µM in assay [2]. On to `Cc1nn(C/C(F)=C/CN)c(C)c1Cc1ccc(S(=O)(=O)NC(C)C)cc1` [Compound 11, (Z)-4-((1-(4-amino-2-fluorobut-2-en-1-yl)-3,5-dimethyl-1H-pyrazol-4-yl)methyl)-N-isopropyl benzenesulfonamide hydrochloride], for which the figures for the IC50 in assay [1] and in assay [2] were below 10 µM and above 30 µM, respectively. `CC(C)c1nn(C/C(F)=C/CN)c(C(C)O)c1Cc1ccc(S(=O)(=O)N(C)C)c(Cl)c1` (centres unmarked) [Compound 59, (Z)-4-((1-(4-amino-2-fluorobut-2-en-1-yl)-5-(1-hydroxyethyl)-3-isopropyl-1H-pyrazol-4-yl)methyl)-2-chloro-N,N-dimethylbenzenesulfonamide hydrochloride]: the IC50 in assay [1] is above 30 µM. As to `CC(C)c1nn(C/C(F)=C/CN)c(C(C)C)c1Cc1ccc(S(=O)(=O)N(C)C)c(Cl)c1` [Compound 60, (Z)-4-((1-(4-amino-2-fluorobut-2-en-1-yl)-3,5-diisopropyl-1H-pyrazol-4-yl)methyl)-2-chloro-N,N-dimethylbenzenesulfonamide hydrochloride], the IC50 in assay [1] was above 30 µM. Still for that read-out and setting: under `Cc1nn(C/C(F)=C/CN)c(C(=O)N(C)C)c1Cc1ccc(S(=O)(=O)N(C)C)c(Cl)c1` [Compound 61, (Z)-1-(4-amino-2-fluorobut-2-en-1-yl)-4-(3-chloro-4-(N,N-dimethylsulfamoyl)benzyl)-N,N,3-trimethyl-1H-pyrazole-5-carboxamide hydrochloride] stands above 30 µM. Take `Cc1nn(C/C(F)=C/CN)c(C(=O)NC(C)(C)C)c1Cc1ccc(S(=O)(=O)N(C)C)c(Cl)c1` [Compound 62, (Z)-1-(4-amino-2-fluorobut-2-en-1-yl)-N-(tert-butyl)-4-(3-chloro-4-(N,N-dimethylsulfamoyl)benzyl)-3-methyl-1H-pyrazole-5-carboxamide hydrochloride]: in assay [1], the IC50 was above 30 µM.

As usually defined, the IC50 is the concentration that gives 50% inhibition.
